Paper PMC11412156 (Journal of medicinal chemistry, 2024)
Several values for one entry are separate records, joined by “and”; a condition that tells them apart may be missing. Equal entries are not always repeated.

Tests used:
HDAC2 = HDAC2 (Homo sapiens, UniProt Q92769); test: HDAC enzyme-based fluorogenic assay, HDAC2; type: biochemical
HDAC1 = HDAC1 (Homo sapiens, UniProt Q13547); test: HDAC enzyme-based fluorogenic assay, HDAC1; type: biochemical
HDAC3 = HDAC3 (Homo sapiens, UniProt O15379); test: HDAC enzyme-based fluorogenic assay, HDAC3; type: biochemical
[1] = In vitro metabolic stability in rat liver microsomes; type: in vitro ADME; details: for half-life: Sprague-Dawley, rat, liver microsomes, pH 7.4; for metabolic stability in RLM, column 0: incubation 0 min; for metabolic stability in RLM, column 0 / metabolic stability in RLM, column 10 / metabolic stability in RLM, column 30 / metabolic stability in RLM, column 45 / metabolic stability in RLM, column 60: 37 °C, NADPH; for metabolic stability in RLM, column 10: incubation 10 min; for metabolic stability in RLM, column 30: incubation 30 min; for metabolic stability in RLM, column 45: incubation 45 min; for metabolic stability in RLM, column 60: incubation 60 min
HDAC6 = target: T1, HDAC6 (Homo sapiens, UniProt Q9UBN7); test: HDAC enzyme-based fluorogenic assay, HDAC6; type: biochemical; details: for HDAC6 inhibitor rate: final concentration of 2 μM, preliminary screen; for Selectivity Index HDAC1/HDAC6 / Selectivity Index HDAC2/HDAC6 / Selectivity Index HDAC3/HDAC6 / Selectivity Index HDAC8/HDAC6 / Selectivity Index HDAC11/HDAC6: ratio of IC50 values
T1 sequence (Q9UBN7 1-1215): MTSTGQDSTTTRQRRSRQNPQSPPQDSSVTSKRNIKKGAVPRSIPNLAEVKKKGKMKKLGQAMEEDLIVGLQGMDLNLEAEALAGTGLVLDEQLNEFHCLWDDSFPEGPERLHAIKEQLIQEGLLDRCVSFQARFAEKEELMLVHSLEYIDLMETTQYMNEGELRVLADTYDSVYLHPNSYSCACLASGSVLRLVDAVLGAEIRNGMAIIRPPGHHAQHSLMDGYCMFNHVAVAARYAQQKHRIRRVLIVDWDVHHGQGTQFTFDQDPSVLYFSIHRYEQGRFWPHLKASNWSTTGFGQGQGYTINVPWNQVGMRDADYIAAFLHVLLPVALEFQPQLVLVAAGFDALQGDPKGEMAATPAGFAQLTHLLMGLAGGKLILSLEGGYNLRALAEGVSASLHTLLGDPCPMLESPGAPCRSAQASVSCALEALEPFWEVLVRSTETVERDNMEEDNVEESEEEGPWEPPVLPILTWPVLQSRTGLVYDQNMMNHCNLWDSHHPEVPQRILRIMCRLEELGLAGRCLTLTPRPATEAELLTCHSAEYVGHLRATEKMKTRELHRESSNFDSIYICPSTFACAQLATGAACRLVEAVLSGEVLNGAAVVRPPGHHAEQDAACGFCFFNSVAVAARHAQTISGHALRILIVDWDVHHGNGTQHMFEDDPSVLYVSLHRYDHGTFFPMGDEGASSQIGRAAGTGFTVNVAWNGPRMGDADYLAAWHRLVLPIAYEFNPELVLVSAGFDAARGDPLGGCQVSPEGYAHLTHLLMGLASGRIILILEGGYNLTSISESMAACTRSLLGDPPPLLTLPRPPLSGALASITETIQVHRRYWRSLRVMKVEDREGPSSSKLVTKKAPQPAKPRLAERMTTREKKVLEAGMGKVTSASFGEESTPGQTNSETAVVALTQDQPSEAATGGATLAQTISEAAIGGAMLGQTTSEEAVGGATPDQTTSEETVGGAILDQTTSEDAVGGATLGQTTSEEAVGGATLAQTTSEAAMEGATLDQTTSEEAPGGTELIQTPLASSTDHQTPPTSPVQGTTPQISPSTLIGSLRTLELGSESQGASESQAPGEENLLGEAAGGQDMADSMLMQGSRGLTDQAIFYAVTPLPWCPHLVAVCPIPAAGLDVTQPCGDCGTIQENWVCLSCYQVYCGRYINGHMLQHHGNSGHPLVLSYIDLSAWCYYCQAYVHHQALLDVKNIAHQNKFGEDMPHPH

HsEH = target: T2, HsEH (Homo sapiens, UniProt P34913); test: fluorescent-based sEH assay with PHOME as substrate; type: biochemical
T2 sequence (P34913 1-555): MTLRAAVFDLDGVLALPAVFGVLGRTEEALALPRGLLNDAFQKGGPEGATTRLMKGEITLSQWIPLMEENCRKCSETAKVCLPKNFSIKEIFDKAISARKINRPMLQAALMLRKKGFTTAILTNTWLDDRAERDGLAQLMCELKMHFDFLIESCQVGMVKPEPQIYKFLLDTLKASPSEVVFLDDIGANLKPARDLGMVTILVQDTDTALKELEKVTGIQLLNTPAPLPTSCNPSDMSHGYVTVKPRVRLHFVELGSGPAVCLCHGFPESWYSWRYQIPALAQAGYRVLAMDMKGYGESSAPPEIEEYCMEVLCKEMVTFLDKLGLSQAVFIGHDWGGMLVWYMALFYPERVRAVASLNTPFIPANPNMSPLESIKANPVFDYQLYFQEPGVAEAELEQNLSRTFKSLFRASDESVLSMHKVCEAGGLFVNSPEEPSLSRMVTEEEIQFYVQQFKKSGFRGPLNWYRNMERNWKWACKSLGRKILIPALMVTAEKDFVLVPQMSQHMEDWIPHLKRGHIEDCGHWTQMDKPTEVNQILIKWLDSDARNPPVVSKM

MsEH = target: T3, MsEH (Mus musculus, UniProt P34914); test: as above; type: biochemical
T3 sequence (P34914 1-554): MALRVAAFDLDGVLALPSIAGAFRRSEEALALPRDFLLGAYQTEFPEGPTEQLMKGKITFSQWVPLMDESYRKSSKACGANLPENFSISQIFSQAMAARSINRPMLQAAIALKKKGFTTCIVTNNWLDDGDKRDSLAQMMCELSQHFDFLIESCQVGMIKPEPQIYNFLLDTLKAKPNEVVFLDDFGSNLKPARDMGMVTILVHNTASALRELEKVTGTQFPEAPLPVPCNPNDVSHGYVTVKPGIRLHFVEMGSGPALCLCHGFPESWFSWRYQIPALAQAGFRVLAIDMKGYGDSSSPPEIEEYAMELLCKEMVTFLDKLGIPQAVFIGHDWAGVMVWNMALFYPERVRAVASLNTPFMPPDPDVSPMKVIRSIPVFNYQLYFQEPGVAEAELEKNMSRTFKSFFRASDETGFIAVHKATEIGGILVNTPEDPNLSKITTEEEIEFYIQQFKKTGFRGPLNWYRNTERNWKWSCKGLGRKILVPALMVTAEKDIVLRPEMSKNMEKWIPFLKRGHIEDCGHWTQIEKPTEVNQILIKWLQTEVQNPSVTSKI

[2] = Pharmacokinetic study in rats; type: in vivo, SD rats; details: for CL / Vz: SD rats, ig (oral) 50 mg/kg; for AUC(0-inf) / AUC(0-t) / Cmax / Tmax / Vd / clearance / half-life / bioavailability: both, Sprague-Dawley, rat, plasma; for bioavailability: oral

HDAC2, sequence (Q92769 whole entry): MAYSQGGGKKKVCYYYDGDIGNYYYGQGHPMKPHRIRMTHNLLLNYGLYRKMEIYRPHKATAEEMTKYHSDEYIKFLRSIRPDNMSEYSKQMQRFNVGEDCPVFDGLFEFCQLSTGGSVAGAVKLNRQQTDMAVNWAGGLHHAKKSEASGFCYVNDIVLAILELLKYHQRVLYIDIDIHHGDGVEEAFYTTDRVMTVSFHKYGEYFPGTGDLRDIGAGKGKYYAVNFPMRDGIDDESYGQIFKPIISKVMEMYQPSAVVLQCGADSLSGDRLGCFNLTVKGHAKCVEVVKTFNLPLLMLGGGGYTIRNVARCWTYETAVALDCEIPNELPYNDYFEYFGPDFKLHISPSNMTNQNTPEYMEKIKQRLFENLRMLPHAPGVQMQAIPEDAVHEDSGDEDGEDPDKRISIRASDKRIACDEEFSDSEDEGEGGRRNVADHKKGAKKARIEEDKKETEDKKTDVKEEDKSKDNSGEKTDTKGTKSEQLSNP
HDAC1, sequence (Q13547 whole entry): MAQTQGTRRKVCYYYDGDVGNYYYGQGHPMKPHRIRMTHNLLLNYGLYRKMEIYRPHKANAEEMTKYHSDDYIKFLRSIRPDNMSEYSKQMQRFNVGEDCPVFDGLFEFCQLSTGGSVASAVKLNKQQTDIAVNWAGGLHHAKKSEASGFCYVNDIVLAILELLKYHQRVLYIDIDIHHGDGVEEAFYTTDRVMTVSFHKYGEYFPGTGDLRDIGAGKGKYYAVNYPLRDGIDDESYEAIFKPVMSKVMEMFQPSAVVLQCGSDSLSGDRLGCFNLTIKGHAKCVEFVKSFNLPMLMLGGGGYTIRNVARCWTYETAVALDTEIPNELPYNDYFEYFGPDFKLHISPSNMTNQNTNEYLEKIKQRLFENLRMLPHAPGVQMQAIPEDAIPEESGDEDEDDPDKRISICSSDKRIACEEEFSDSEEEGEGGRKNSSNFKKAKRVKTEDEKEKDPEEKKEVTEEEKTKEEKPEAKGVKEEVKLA
HDAC3, sequence (O15379 whole entry): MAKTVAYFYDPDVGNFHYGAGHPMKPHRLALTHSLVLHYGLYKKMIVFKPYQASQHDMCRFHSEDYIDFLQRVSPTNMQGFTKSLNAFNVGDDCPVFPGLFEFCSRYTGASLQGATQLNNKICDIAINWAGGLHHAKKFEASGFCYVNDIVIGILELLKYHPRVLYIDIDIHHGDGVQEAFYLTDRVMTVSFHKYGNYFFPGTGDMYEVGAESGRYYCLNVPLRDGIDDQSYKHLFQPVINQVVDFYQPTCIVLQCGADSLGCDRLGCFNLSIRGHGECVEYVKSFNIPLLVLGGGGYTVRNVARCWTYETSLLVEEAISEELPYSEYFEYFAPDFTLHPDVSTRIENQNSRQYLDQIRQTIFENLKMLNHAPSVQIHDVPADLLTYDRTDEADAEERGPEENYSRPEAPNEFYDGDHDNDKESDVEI
HDAC3, sequence (Q9Y618 395-489 partner limits assumed): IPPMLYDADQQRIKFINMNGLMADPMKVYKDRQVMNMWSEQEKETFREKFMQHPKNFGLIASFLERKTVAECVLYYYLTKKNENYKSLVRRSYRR

Row | Structure (SMILES) | IC50 (HDAC2) | IC50 (HDAC1) | IC50 (HDAC3) | half-life [1] | metabolic stability in RLM, column 0 [1] | metabolic stability in RLM, column 10 [1] | metabolic stability in RLM, column 30 [1] | metabolic stability in RLM, column 45 [1] | metabolic stability in RLM, column 60 [1] | IC50 (HDAC6) | HDAC6 inhibitor rate (HDAC6) | Selectivity Index HDAC1/HDAC6 (HDAC6) | Selectivity Index HDAC2/HDAC6 (HDAC6) | Selectivity Index HDAC3/HDAC6 (HDAC6) | Selectivity Index HDAC8/HDAC6 (HDAC6) | Selectivity Index HDAC11/HDAC6 (HDAC6) | IC50 (HsEH) | IC50 (MsEH) | CL [2] | Vz [2] | further results
1 | O=C(CCCCCCNC(=O)[C@H]1CCCN(C(=O)c2ccc(NC(=O)Nc3ccc(Cl)c(F)c3)c(F)c2)C1)NO [Compound 28g, (S)-1-(4-(3-(4-Chloro-3-fluorophenyl)ureido)-3-fluorobenzoyl)-N-(7-(hydroxyamino)-7-oxoheptyl)piperidine-3-carboxamide] | 492 nM | 1150 nM | 1280 nM | 2.28 h | 100.00 | 91.61 | 83.80 | 78.76 | 70.64 | 8 nM | > 91% and 99.78% | 144 | 62 | 160 | 8 | 58 | 0.9 nM | 46.8 nM | 0.82 L/h | 4.20 L | AUC(0-inf) ([2]; iv, 10 mg/kg): 21.2 µM·h; AUC(0-t) ([2]; iv, 10 mg/kg): 12.3 µM·h; Cmax ([2]; iv, 10 mg/kg): 7.87 µM; Tmax ([2]; iv, 10 mg/kg): 0.08 h; Vd ([2]; iv, 10 mg/kg): 1.28 L; clearance ([2]; iv, 10 mg/kg): 2.67 mL/min; half-life ([2]; iv, 10 mg/kg): 5.43 h; bioavailability ([2]; 50 mg/kg): 24.4%; AUC(0-inf) ([2]; po, 50 mg/kg): 21.2 µM·h; AUC(0-t) ([2]; po, 50 mg/kg): 15 µM·h; Cmax ([2]; po, 50 mg/kg): 6.63 µM; Tmax ([2]; po, 50 mg/kg): 0.5 h; half-life ([2]; po, 50 mg/kg): 3.55 h
2 | O=C(CCCCCCNC(=O)[C@H]1CCCN(C(=O)c2ccc(NC(=O)Nc3cc(F)cc(F)c3)c(F)c2)C1)NO [Compound 28j, (S)-1-(4-(3-(3,5-Difluorophenyl)ureido)-3-fluorobenzoyl)-N-(7-(hydroxyamino)-7-oxoheptyl)piperidine-3-carboxamide] | 1070 nM | 1030 nM | 2620 nM | 0.939 h | 100.00 | 85.62 | 73.00 | 59.75 | 50.47 | 8 nM | > 91% and 98.92% | 129 | 134 | 327 | 9 | 132 | 3.6 nM | 103 nM | 0.96 L/h | 3.95 L | AUC(0-inf) ([2]; iv, 10 mg/kg): 20 µM·h; AUC(0-t) ([2]; iv, 10 mg/kg): 13.8 µM·h; Cmax ([2]; iv, 10 mg/kg): 8.1 µM; Tmax ([2]; iv, 10 mg/kg): 0.08 h; Vd ([2]; iv, 10 mg/kg): 1.1 L; clearance ([2]; iv, 10 mg/kg): 3 mL/min; half-life ([2]; iv, 10 mg/kg): 4.08 h; bioavailability ([2]; 50 mg/kg): 21.5%; AUC(0-inf) ([2]; po, 50 mg/kg): 18.7 µM·h; AUC(0-t) ([2]; po, 50 mg/kg): 14.8 µM·h; Cmax ([2]; po, 50 mg/kg): 10.1 µM; Tmax ([2]; po, 50 mg/kg): 0.17 h; half-life ([2]; po, 50 mg/kg): 2.84 h
